The assay deals with T1, Dopamine beta hydroxylase (Homo sapiens, UniProt P09172).
T1 construct: 125 μl of plasma; tissue Instituto Português do Sangue Transplantação; host or cells: human plasma from healthy donors
T1 sequence (P09172 40-617 limits assumed): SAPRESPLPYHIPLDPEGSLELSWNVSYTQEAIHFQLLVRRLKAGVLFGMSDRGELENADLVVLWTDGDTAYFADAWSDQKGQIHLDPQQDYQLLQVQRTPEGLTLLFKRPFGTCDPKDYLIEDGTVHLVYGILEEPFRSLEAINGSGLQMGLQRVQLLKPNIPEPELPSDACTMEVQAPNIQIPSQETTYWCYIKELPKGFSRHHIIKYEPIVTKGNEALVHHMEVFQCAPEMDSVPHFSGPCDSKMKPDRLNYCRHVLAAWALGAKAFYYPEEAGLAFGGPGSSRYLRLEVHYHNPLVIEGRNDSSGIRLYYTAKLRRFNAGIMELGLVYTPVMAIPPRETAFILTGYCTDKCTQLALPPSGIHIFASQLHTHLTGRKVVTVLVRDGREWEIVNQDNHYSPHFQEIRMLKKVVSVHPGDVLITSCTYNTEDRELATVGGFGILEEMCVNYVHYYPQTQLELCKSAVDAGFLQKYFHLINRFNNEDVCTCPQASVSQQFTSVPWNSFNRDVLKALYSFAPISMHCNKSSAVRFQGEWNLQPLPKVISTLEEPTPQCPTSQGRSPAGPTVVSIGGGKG
The experiment in a line: Dopamine beta hydroxylase activity in human plasma. The class given is biochemical. The note with it: for Plasma (1 μM), activity in % of control: inhibitor 1 μM. In a few lines: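 Octopamine production from tyramine over 45 min at 37° C, measured photometrically at 330 nm after SCX extraction and periodate oxidation against an octopamine standard curve, indicates plasma DβH activity. Compounds tested at final 10, 100 and 1000 nM in human plasma, pH 5.0 cofactor buffer, 10 min preincubation; results as % of control.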

Marks after values point to notes of the source that are not given here.

As to `Cn1c(CC(=O)O)c2n(c1=S)C[C@@]1(c3cc(Cl)ccc3F)C[C@@H]21` [Example 276, 2-((5aS,6aR)-5a-(5-chloro-2-fluorophenyl)-2-methyl-3-thioxo-2,3,5,5a,6,6a-hexahydrocyclopropa[3,4]pyrrolo[1,2-c]imidazol-1-yl)acetic Acid], the “Plasma (0.01 μM), activity in % of control” value (inhibitor 0.01 μM) is given as 83.3 % of control. In addition, the “Plasma (0.1 μM), activity in % of control” value (inhibitor 0.1 μM) is on record as 33.3 % of control.
The like results for `Fc1ccc(Br)c(F)c1[C@@H]1Cc2c(CCNC3CCC3)[nH]c(=S)n2C1` [Example 181, (S)-6-(3-bromo-2,6-difluorophenyl)-1-(2-(cyclobutylamino)ethyl)-2,5,6,7-tetrahydro-3H-pyrrolo[1,2-c]imidazole-3-thione] were, in that order, 68.9 % of control and 18.3 % of control.
On to `CN(C)C(=O)Cc1[nH]c(=S)n2c1[C@@H]1C[C@]1(c1cc(F)cc(Cl)c1)C2` [Example 69, 2-((5aS,6aR)-5a-(3-chloro-5-fluorophenyl)-3-thioxo-2,3,5,5a,6,6a-hexahydrocyclopropa[3,4]pyrrolo[1,2-c]imidazol-1-yl)-N,N-dimethylacetamide], for which the “Plasma (1 μM), activity in % of control” value is reported as 24.1 % of control. The “Plasma (0.1 μM), activity in % of control” value (inhibitor 0.1 μM) is reported as 82.1 % of control.
With `Cn1c(CC(=O)NC2CCCCC2)c2n(c1=S)C[C@H](c1c(F)ccc(Cl)c1F)C2` [Example 356, (S)-2-(6-(3-chloro-2,6-difluorophenyl)-2-methyl-3-thioxo-2,5,6,7-tetrahydro-3H-pyrrolo[1,2-c]imidazol-1-yl)-N-cyclohexylacetamide], where the note is “inhibitor 0.01 μM”, the “Plasma (0.01 μM), activity in % of control” value is given as 35.4 % of control. The “Plasma (0.1 μM), activity in % of control” value (inhibitor 0.1 μM) was 6.6 % of control.
Consider `CC(C)NC(=O)Cc1[nH]c(=S)n2c1[C@@H]1C[C@]1(c1cc(Cl)ccc1F)C2` [Example 67, 2-((5aS,6aR)-5a-(5-chloro-2-fluorophenyl)-3-thioxo-2,3,5,5a,6,6a-hexahydrocyclopropa[3,4]pyrrolo[1,2-c]imidazol-1-yl)-N-isopropylacetamide], for which the “Plasma (1 μM), activity in % of control” value was 13.2 % of control. Besides, the “Plasma (0.1 μM), activity in % of control” value (inhibitor 0.1 μM) is on record as 76.1 % of control.
Consider `O=C(Cc1[nH]c(=S)n2c1[C@@H]1C[C@]1(c1c(F)ccc(Cl)c1F)C2)N1CCC(F)(F)CC1` [Example 149, 2-((5aS,6aR)-5a-(3-chloro-2,6-difluorophenyl)-3-thioxo-2,3,5,5a,6,6a-hexahydrocyclopropa[3,4]pyrrolo[1,2-c]imidazol-1-yl)-1-(4,4-difluoropiperidin-1-yl)ethan-1-one], for which, under “inhibitor 0.01 μM”, the “Plasma (0.01 μM), activity in % of control” value was 52.5 % of control. The “Plasma (0.1 μM), activity in % of control” value (inhibitor 0.1 μM) is 3.0 % of control.
As for `OCCc1[nH]c(=S)n2c1C[C@H](c1c(F)ccc(Br)c1F)C2` [Example 173, (R)-6-(3-bromo-2,6-difluorophenyl)-1-(2-hydroxyethyl)-2,5,6,7-tetrahydro-3H-pyrrolo[1,2-c]imidazole-3-thione], for the setting “inhibitor 0.01 μM”, the “Plasma (0.01 μM), activity in % of control” value is 94.2 % of control. Besides, the “Plasma (0.1 μM), activity in % of control” value (inhibitor 0.1 μM) is recorded as 33.1 % of control.
On the same counts, the results for `Fc1ccc(Cl)cc1[C@]12C[C@H]1c1c(CCNc3cccnc3)[nH]c(=S)n1C2` [Example 197, (5aS,6aR)-5a-(5-chloro-2-fluorophenyl)-1-(2-(pyridin-3-ylamino)ethyl)-5,5a,6,6a-tetrahydrocyclopropa[3,4]pyrrolo[1,2-c]imidazole-3(2H)-thione] are 75.9 % of control and 29.4 % of control.
For `CN(C)C(=O)C1CCN(C(=O)Cc2c3n(c(=S)n2C)C[C@H](c2c(F)ccc(Br)c2F)C3)C1` (stereo partly drawn) [Example 453, 1-(2-((S)-6-(3-bromo-2,6-difluorophenyl)-2-methyl-3-thioxo-2,5,6,7-tetrahydro-3H-pyrrolo[1,2-c]imidazol-1-yl)acetyl)-N,N-dimethylpyrrolidine-3-carboxamide], where the note is “inhibitor 0.01 μM”, the “Plasma (0.01 μM), activity in % of control” value is listed as 56.6 % of control. The “Plasma (0.1 μM), activity in % of control” value (inhibitor 0.1 μM) is reported as 10.4 % of control.
Take `O=C(Cc1[nH]c(=S)n2c1C[C@@H](c1c(F)ccc(Cl)c1F)C2)N[C@@H]1CCOC1` [Example 362, 2-((S)-6-(3-chloro-2,6-difluorophenyl)-3-thioxo-2,5,6,7-tetrahydro-3H-pyrrolo[1,2-c]imidazol-1-yl)-N—((R)-tetrahydrofuran-3-yl)acetamide]: the “Plasma (0.01 μM), activity in % of control” value (inhibitor 0.01 μM) is recorded as 43.2 % of control. Besides, the “Plasma (0.1 μM), activity in % of control” value (inhibitor 0.1 μM) was 11.8 % of control.
The like results for `Fc1cc(F)c(F)c([C@H]2Cc3c(CCc4cccnc4)[nH]c(=S)n3C2)c1F` [Example 212, (R)-1-(2-(pyridin-3-yl)ethyl)-6-(2,3,5,6-tetrafluorophenyl)-6,7-dihydro-2H-pyrrolo[1,2-c]imidazole-3(5H)-thione] were, in that order, 86.5 % of control and 46 % of control.
As to `O=C(Cc1[nH]c(=S)n2c1C[C@H](c1c(F)ccc(Br)c1F)C2)N1CCCC(O)C1` (stereo partly drawn) [Example 121, 2-((R)-6-(3-bromo-2,6-difluorophenyl)-3-thioxo-2,5,6,7-tetrahydro-3H-pyrrolo[1,2-c]imidazol-1-yl)-1-(3-hydroxypiperidin-1-yl)ethan-1-one], the “Plasma (0.01 μM), activity in % of control” value (inhibitor 0.01 μM) was 79.3 % of control. Moreover, the “Plasma (0.1 μM), activity in % of control” value (inhibitor 0.1 μM) is recorded as 62.6 % of control.
As for `Cn1c(CC(=O)Nc2ncco2)c2n(c1=S)C[C@@H](c1c(F)c(F)cc(F)c1F)C2` [Example 316, (R)-2-(2-methyl-3-thioxo-6-(2,3,5,6-tetrafluorophenyl)-2,5,6,7-tetrahydro-3H-pyrrolo[1,2-c]imidazol-1-yl)-N-(oxazol-2-yl)acetamide], where the note is “inhibitor 0.01 μM”, the “Plasma (0.01 μM), activity in % of control” value is reported as 43.4 % of control. Moreover, under “inhibitor 0.01 μM, re-tested under the same experimental conditions, asterisked data believed to be correct”, the “Plasma (0.01 μM), activity in % of control, re-test (asterisked)” value is reported as 73.1* % of control. Also, under “inhibitor 0.1 μM”, the “Plasma (0.1 μM), activity in % of control” value is 4.5 % of control. The “Plasma (0.1 μM), activity in % of control, re-test (asterisked)” value (inhibitor 0.1 μM, re-tested under the same experimental conditions, asterisked data believed to be correct) is 16.6* % of control.
Consider `Cn1c(CC(=O)N2CC[C@@H](C#N)C2)c2n(c1=S)C[C@@H](c1c(F)ccc(F)c1F)C2` [Example 390, (R)-1-(2-((R)-2-methyl-3-thioxo-6-(2,3,6-trifluorophenyl)-2,5,6,7-tetrahydro-3H-pyrrolo[1,2-c]imidazol-1-yl)acetyl)pyrrolidine-3-carbonitrile], for which the “Plasma (0.01 μM), activity in % of control” value (inhibitor 0.01 μM) is reported as 75.0 % of control. For the same compound, where the note is “inhibitor 0.1 μM”, the “Plasma (0.1 μM), activity in % of control” value was 52.0 % of control.
On the same counts, the results for `CN(CCO)Cc1[nH]c(=S)n2c1C[C@H](c1c(F)c(F)cc(F)c1F)C2.Cl` [Example 211, (R)-1-(((2-hydroxyethyl)(methyl)amino)methyl)-6-(2,3,5,6-tetrafluorophenyl)-2,5,6,7-tetrahydro-3H-pyrrolo[1,2-c]imidazole-3-thione hydrochloride] are 104.9 % of control and 94.8 % of control.
Regarding `O=C(CCc1[nH]c(=S)n2c1C[C@H](c1c(F)c(F)cc(F)c1F)C2)N1CCCC1` [Example 204, (R)-1-(pyrrolidin-1-yl)-3-(6-(2,3,5,6-tetrafluorophenyl)-3-thioxo-2,5,6,7-tetrahydro-3H-pyrrolo[1,2-c]imidazol-1-yl)propan-1-one], the “Plasma (0.01 μM), activity in % of control” value (inhibitor 0.01 μM) is reported as 26.5 % of control. In addition, the “Plasma (0.1 μM), activity in % of control” value (inhibitor 0.1 μM) was 1.1 % of control.
Take `O=C(Cc1[nH]c(=S)n2c1C[C@H](c1c(F)c(F)cc(F)c1F)C2)NCC1CC1` [Example 79, (R)—N-(cyclopropylmethyl)-2-(6-(2,3,5,6-tetrafluorophenyl)-3-thioxo-2,5,6,7-tetrahydro-3H-pyrrolo[1,2-c]imidazol-1-yl)acetamide]: the “Plasma (1 μM), activity in % of control” value is listed as 10.3 % of control. Further, the “Plasma (0.1 μM), activity in % of control” value (inhibitor 0.1 μM) is on record as 54.3 % of control.
On to `F.Fc1ccc(Br)cc1[C@]12C[C@H]1c1c(CCNc3ccccn3)[nH]c(=S)n1C2` [Example 192, (5aS,6aR)-5a-(5-bromo-2-fluorophenyl)-1-(2-(pyridin-2-ylamino)ethyl)-5,5a,6,6a-tetrahydrocyclopropa[3,4]pyrrolo[1,2-c]imidazole-3(2H)-thione hydrofluoride], for which the “Plasma (0.01 μM), activity in % of control” value (inhibitor 0.01 μM) is 73.4 % of control. Also, for the setting “inhibitor 0.1 μM”, the “Plasma (0.1 μM), activity in % of control” value is 12.1 % of control.
The like results for `Cn1c(CC(=O)NCc2ccc3c(c2)OCO3)c2n(c1=S)C[C@H](c1c(F)ccc(Cl)c1F)C2` [Example 291, (S)—N-(benzo[d][1,3]dioxol-5-ylmethyl)-2-(6-(3-chloro-2,6-difluorophenyl)-2-methyl-3-thioxo-2,5,6,7-tetrahydro-3H-pyrrolo[1,2-c]imidazol-1-yl)acetamide] were, in that order, 30.2 % of control and 1.7 % of control.

Source of the values: patent US11434242B2, “Dopamine-b-hydroxylase inhibitors” (BIAL-PORTELA & Cª, S.A., priority 2017, dated 2022).
